Experimental data published in article PMC9310948 (Chemcatchem, 2022).

Molecular target: H. orenii β-glucosidase (GH1) (Halothermothrix orenii, UniProt B8CYA8)
Assay: p-nitrophenol release, absorbance […] nm
Format: biochemical
Settings: 50 mM HEPES pH 7.4, 10 mM substrate

Chain of H. orenii β-glucosidase (GH1) (B8CYA8 1-451): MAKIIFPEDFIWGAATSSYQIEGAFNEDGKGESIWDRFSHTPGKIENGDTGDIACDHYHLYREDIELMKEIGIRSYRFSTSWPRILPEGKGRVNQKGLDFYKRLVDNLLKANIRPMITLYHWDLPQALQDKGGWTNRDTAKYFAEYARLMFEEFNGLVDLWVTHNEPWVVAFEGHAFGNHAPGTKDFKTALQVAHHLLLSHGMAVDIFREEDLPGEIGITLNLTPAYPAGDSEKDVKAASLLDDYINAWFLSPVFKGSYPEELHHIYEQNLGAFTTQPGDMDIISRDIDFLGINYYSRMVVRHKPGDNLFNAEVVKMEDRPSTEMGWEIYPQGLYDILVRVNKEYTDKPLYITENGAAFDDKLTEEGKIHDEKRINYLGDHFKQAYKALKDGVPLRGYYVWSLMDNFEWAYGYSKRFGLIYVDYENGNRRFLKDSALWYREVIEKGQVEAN

O=[N+]([O-])c1ccc(O[C@@H]2O[C@H](CO)[C@@H](O)[C@H](O)[C@H]2O)cc1 [p-nitrophenyl glucoside]
p-nitrophenol release, absorbance 420 nm: monitoring the enzymatic rate of hydrolysis of p‐nitrophenyl glucoside by a UV‐Vis assay
